For 1 molecule, Ki and solubility results are on record in patent US12215101B2, “Pro drugs of PDE10 compounds” (Merck Sharp & Dohme LLC, priority 2021, dated 2025).

Data set [1] deals with T1, human PDE10 enzyme (Homo sapiens, UniProt Q9Y233).
T1 construct: made in house; host or cells: AD293 cells, transiently transfected; the supernatant (cytoplasmic fraction) of the sonicated lysate served as enzyme
The data set is described as follows: PDE10 fluorescence polarization (IMAP FP) inhibition assay. Format: biochemical. The settings on record: 'generally less than about'. As for the experimental part:
The activity of the compounds in accordance with the present invention as PDE10 inhibitors may be readily determined without undue experimentation using a fluorescence polarization (FP) methodology that is well known in the art (Huang, W., et al., J. Biomol Screen, 2002, 7: 215).
In a typical experiment the PDE10 inhibitory activity of compounds such as Compound A was determined in accordance with the following experimental method. PDE10A2 was amplified from human fetal brain cDNA (Clontech, Mountain View, CA) using a forward primer corresponding to nucleotides 56-77 of human PDE10A2 (Accession No. AF127480, Genbank Identifier 4894716), containing a Kozak consensus sequence, and a reverse primer corresponding to nucleotides 2406-2413 of human PDE10A2 (Accession No. AF127480, Genbank Identifier 4894716). Amplification with Easy-A polymerase (Stratagene, La Jolla, CA) was 95° C. for 2 minutes followed by thirty three cycles of 95° C. for 40 seconds, 55° C. for 30 seconds, and 72° C. for 2 minutes 48 seconds. Final extension was 72° C. for 7 minutes. […] The fluorescence polarization assay for cyclic nucleotide phosphodiesterases was performed using an IMAP® FP kit supplied by Molecular Devices, Sunnyvale, CA (product #R8139). […] 0% of inhibition is determined by using DMSO (1% final concentrations). […]
Background: Polarisation of emitted light reports the rotation of a fluorescent probe.

Data set [2] in a line: Aqueous solubility (slurry in pH 7 buffer, UPLC). The class given is physicochemical. The settings on record: aqueous buffer, thermodynamic from solid; pH 7.4 in PBS buffer solution; read-out: Solubility. On the procedure: Aqueous solubility of the compounds was measured by suspending, sonicating (30 minutes), and slurrying (2 hours, 1000 rpm) excess solid (typically 5-10 mg) in phosphate buffered saline at pH 7, or equivalent pH 7 buffer. The suspension was then sonicated again for 30 minutes and stirred again at 1000 rpm for at least 6-24 hours. Approximately 400 μL of sample was removed and placed into spin filters. Each sample was spun at 14K rpm for 10 minutes using a 0.45 μm PVDF spin filter. A portion of the filtrate was removed and diluted with 1:1 ACN:H2O. The resultant samples were analyzed using UPLC analysis. Retains of the solids were checked by XRPD to determine if the material was crystalline or amorphous. Solubility of Compound A was measured at 140 μg/mL at pH 7.4 in PBS buffer solution.

≈ marks a conversion by molar mass, not a printed value.

T1 sequence (Q9Y233 267-1055): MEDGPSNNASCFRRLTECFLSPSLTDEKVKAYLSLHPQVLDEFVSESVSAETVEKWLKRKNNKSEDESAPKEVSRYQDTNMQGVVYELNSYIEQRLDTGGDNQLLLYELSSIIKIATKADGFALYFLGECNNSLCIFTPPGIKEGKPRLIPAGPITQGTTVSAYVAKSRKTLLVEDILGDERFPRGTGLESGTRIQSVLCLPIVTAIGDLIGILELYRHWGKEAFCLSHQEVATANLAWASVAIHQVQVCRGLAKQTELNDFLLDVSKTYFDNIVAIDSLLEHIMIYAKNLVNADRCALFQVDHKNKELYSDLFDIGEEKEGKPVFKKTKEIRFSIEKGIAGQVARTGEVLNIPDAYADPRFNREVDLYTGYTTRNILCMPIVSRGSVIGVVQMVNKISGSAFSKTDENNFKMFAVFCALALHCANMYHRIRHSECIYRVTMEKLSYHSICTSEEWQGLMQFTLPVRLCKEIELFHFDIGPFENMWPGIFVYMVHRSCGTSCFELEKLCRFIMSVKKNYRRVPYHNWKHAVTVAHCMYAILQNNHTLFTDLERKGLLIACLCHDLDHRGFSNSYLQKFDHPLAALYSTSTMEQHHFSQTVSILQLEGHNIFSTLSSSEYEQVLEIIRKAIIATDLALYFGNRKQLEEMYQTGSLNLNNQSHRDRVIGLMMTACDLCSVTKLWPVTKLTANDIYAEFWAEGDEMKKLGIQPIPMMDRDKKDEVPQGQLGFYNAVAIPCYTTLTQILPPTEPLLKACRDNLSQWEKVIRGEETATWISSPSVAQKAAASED

For `Cc1ccc([C@H]2C[C@@H]2COc2cc(NCc3nnc(C)s3)nc(C)n2)nc1` [Compound A, 2-methyl-N-((5-methyl-1,3,4-thiadiazol-2-yl)methyl)-6-(((1S,2S)-2-(5-methylpyridin-2-yl)cyclopropyl)methoxy)pyrimidin-4-amine, reference compound], the inhibition constant Ki in data set [1] is < 1000 nM. Moreover, the solubility in data set [2] came to 140 µg/mL (≈ 366 µM).

What is called Ki is the dissociation constant of the complex between target and ligand, obtained from inhibition or displacement. Read a high Ki as lower affinity. Usually solubility stands for the dissolved amount per volume that the medium holds.
